Assay results published in patent US20100063041A1, “NOVEL PHENYLPROPIONIC ACID DERIVATIVES AS PEROXISOME PROLIFERATOR-ACTIVATED GAMMA RECEPTOR MODULATORS, METHOD OF THE SAME, AND PHARMACEUTICAL COMPOSITION COMPRISING THE SAME” (priority 2007, published 2010).
Substitutions are numbered along the chain they refer to.

Tests used:
Test in all cases: transactivation assay (GAL4 chimeric receptor, luciferase) in CV-1 cells
Assay type in all cases: cell-based
Human PPAR-α = target: T1, Human PPAR-α (Homo sapiens, UniProt Q07869); settings: for Emax: CV-1, Relative Response % to maximum effects of the positive control drug, read-out: Max % Human PPAR-α; for EC50: CV-1 cells, GAL4 chimeric receptor, 24 hours
T1 construct: expressed in transfected cells; host or cells: CV-1 (CCL-70, ATCC)
T1 sequence (Q07869 239-466 limits assumed): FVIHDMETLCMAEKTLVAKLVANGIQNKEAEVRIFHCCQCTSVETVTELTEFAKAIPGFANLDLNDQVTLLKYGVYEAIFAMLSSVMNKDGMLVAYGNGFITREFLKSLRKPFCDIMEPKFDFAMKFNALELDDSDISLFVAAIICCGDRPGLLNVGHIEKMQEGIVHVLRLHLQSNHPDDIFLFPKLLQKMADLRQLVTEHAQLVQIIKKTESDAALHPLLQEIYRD
Description: (§1) Following induction of transient intracellular expression of PPAR-α and -γ, an ability of the inventive compounds to induce transactivation of PPARs via activation of each PPAR was evaluated as an efficacy of the compound (transactivation assay).
(§2) For this assay, the African green monkey kidney cell line CV-1 (CCL-70, ATCC) was used as a test cell line, and PPAR-α and -γ were murine- and human-derived PPARs. Samples used were compounds prepared in Examples 19, 21, 23, 25, 26, 27, 31, 33, 34, 36, 38, 40, 42, 43 and 50. As a positive control drug, 3-4-[2-(2-phenyl-4-methyl-1,3-oxazole)ethyloxy]phenyl-(2S)-[(1-methyl-3-oxo-3-phenyl)propenyl]aminopropionic acid was used that is a PPAR-α or -γ agonist which was once under development and whose clinical trials and studies were suspended at phase III. A chimeric receptor was adopted to circumvent the probable interference due to endogenous receptor activation (Jian-Shen Q. et al., Mol Cell Biol (1995) 15(3):1817-1825). The chimeric receptor was constructed as a fusion of a PPAR-α or -γ ligand-binding domain with a DNA-binding domain of GAL4 which is a yeast transactivator.
(§3) The CV-1 cells were transiently transfected with each of chimeric receptor-expressing DNA constructs and each of DNA constructs comprising 5 copies of the GAL4 DNA-binding domain and capable of inducing expression of firefly luciferase or Renilla luciferase using a Lipofectamine Plus reagent (Invitrogen, USA). After transfection for 3 hours, the culture media were replaced with DMEM containing the above samples and 10% fetal bovine serum. 24 hours later, the firefly luciferase activity and Renilla luciferase activity were continuously assayed while adding an equal amount of a dual luciferase assay reagent (Promega, USA) to the cell-containing media. The transfection efficiency was normalized against Renilla luciferase activity (Motomura W. et al., Int J Cancer (2004) 108(1):41-6). The PPAR-α and -γ activity was determined by calculating Relative Response % to maximum effects of the positive control drug, and conducting multiple dose evaluation of the inventive compounds to calculate EC50, which is the concentration of a drug which produces 50% activation relative to maximum effects of the inventive compounds, by nonlinear regression analysis.

Human PPAR-γ = target: T2, Human PPAR-γ (Homo sapiens, UniProt P37231); settings: for Emax: CV-1, Relative Response % to maximum effects of the positive control drug, read-out: Max % Human PPAR-γ; for EC50: CV-1 cells, GAL4 chimeric receptor, 24 hours
T2 construct: expressed in transfected cells; host or cells: CV-1 (CCL-70, ATCC)
T2 sequence (P37231 238-503 limits assumed): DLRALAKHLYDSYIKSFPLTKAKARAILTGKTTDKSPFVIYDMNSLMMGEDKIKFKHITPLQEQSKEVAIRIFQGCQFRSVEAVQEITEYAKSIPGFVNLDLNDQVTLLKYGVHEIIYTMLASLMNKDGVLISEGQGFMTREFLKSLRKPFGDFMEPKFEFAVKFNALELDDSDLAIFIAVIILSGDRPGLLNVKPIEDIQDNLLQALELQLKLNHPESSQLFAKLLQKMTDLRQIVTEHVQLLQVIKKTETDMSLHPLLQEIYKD
Description: as §1, §2, §3

Mouse PPAR-α = target: T3, Mouse PPAR-α (Mus musculus, UniProt P23204); settings: for Emax: CV-1, Relative Response % to maximum effects of the positive control drug, read-out: Max % Mouse PPAR-α; for EC50: CV-1 cells, GAL4 chimeric receptor, 24 hours
T3 construct: expressed in transfected cells; host or cells: CV-1 (CCL-70, ATCC)
T3 sequence (P23204 239-466 limits assumed): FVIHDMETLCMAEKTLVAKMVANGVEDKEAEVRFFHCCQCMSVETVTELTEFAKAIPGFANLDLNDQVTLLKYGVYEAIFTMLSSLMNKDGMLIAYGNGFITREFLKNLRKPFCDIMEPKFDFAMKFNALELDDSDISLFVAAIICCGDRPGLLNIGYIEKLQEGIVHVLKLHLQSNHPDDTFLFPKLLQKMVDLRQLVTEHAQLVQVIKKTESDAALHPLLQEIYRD
Description: as §1, §2, §3

Mouse PPAR-γ = target: T4, Mouse PPAR-γ (Mus musculus, UniProt P37238); settings: for Emax: CV-1, Relative Response % to maximum effects of the positive control drug, read-out: Max % Mouse PPAR-γ; for EC50: CV-1 cells, GAL4 chimeric receptor, 24 hours
T4 construct: expressed in transfected cells; host or cells: CV-1 (CCL-70, ATCC)
T4 sequence (P37238 238-503 limits assumed): T2 sequence (P37231 238-503 limits assumed) with S93N, V98I, S146N, L226V, Q245H
Description: as §1, §2, §3

| Compound | Emax (Human PPAR-α) [%] | EC50 (Human PPAR-α) [nM] | Emax (Human PPAR-γ) [%] | EC50 (Human PPAR-γ) [nM] | Emax (Mouse PPAR-α) [%] | Emax (Mouse PPAR-γ) [%] | EC50 (Mouse PPAR-γ) [nM] | EC50 (Mouse PPAR-α) [nM] |
| --- | --- | --- | --- | --- | --- | --- | --- | --- |
| CCO[C@@H](Cc1ccc(OCc2sc(-c3ccc(C(=O)N4CCOCC4)cc3)cc2C)cc1)C(=O)O [Example 17, (S)-2-ethoxy-3-(4-((3-methyl-5-(4-(morpholino-4-carbonyl)phenyl)thiophen-2-yl)methoxy)phenyl)propionic acid] | 12 | 3210 | 47 | 1270 | 11 | 117 | 14500 |  |
| CCO[C@@H](Cc1ccc(OCc2sc(-c3ccc(C4=Nc5ccccc5OC4)cc3)cc2C)cc1)C(=O)O [Example 23, (S)-3-(4-((5-(4-(2H-benzo[b][1,4]oxazin-3-yl)phenyl)-3-methylthiophen-2-yl)methoxy)phenyl)-2-ethoxypropionic acid] | 44 | 2010 | 83 | 65 | 43 | 67 | 165 | 105 |
| CCO[C@@H](Cc1ccc(OCc2sc(-c3ccc(-c4noc(C)n4)cc3)cc2C)cc1)C(=O)O [Example 25, (S)-2-ethoxy-3-(4-((3-methyl-5-(4-(5-methyl-1,2,4-oxadiazol-3-yl)phenyl)thiophen-2-yl)methoxy)phenyl)propionic acid] | 63 | 5240 | 48 | 95 | 35 | 48 | 295 | 443 |
| CCO[C@@H](Cc1ccc(OCc2sc(-c3ccc(-c4nnn(C(C)C)n4)cc3)cc2C)cc1)C(=O)O [Example 31, (S)-2-ethoxy-3-(4-((5-(4-(2-isopropyl-2H-tetrazol-5-yl)phenyl)-3-methylthiophen-2-yl)methoxy)phenyl)propionic acid] | 21 | 478 | 25 | 100 | 10 | 23 | 57 | 3090 |
| CCO[C@@H](Cc1ccc(OCc2sc(-c3ccc(-c4cc(C(=O)NC)no4)cc3)cc2C)cc1)C(=O)O [Example 38, (S)-2-ethoxy-3-(4-((3-methyl-5-(4-(3-(methylcarbamoyl)isoxazol-5-yl)phenyl)thiophen-2-yl)methoxy)phenyl)propionic acid] | 51 | 5140 | 68 | 100 | 49 | 81 | 180 | 5780 |
| CCO[C@@H](Cc1ccc(OCc2sc(-c3ccc(-c4cc(C)no4)cc3)nc2C)cc1)C(=O)O [Example 47, (S)-2-ethoxy-3-(4-((4-methyl-2-(4-(3-methylisoxazol-5-yl)phenyl)thiazol-5-yl)methoxy)phenyl)propionic acid] | 60 | 1410 | 50 | 82 | 71 | 70 | 208 | 560 |

Compounds with a lower EC50 (Human PPAR-γ), results first:

| Emax (Human PPAR-α) [%] | EC50 (Human PPAR-α) [nM] | Emax (Human PPAR-γ) [%] | EC50 (Human PPAR-γ) [nM] | Emax (Mouse PPAR-α) [%] | Emax (Mouse PPAR-γ) [%] | EC50 (Mouse PPAR-γ) [nM] | EC50 (Mouse PPAR-α) [nM] | Compound |
| --- | --- | --- | --- | --- | --- | --- | --- | --- |
| 52 | 1230 | 66 | 49 | 31 | 48 | 118 | 381 | CCO[C@@H](Cc1ccc(OCc2sc(-c3ccc(-c4nnn(C)n4)cc3)cc2C)cc1)C(=O)O [Example 29, (S)-2-ethoxy-3-(4-((3-methyl-5-(4-(2-methyl-2H-tetrazol-5-yl)phenyl)thiophen-2-yl)methoxy)phenyl)propionic acid] |
| 44 | 6570 | 43 | 45 | 19 | 43 | 281 | 6830 | CCO[C@@H](Cc1ccc(OCc2sc(-c3ccc(C4=NCCCO4)cc3)cc2C)cc1)C(=O)O [Example 19, (S)-3-(4-((5-(4-(5,6-dihydro-4H-1,3-oxazin-2-yl)phenyl)-3-methylthiophen-2-yl)methoxy)phenyl)-2-ethoxypropionic acid] |
| 19 | 1400 | 45 | 32 | 23 | 38 | 84 | 4930 | CCO[C@@H](Cc1ccc(OCc2sc(-c3ccc(-c4csnn4)cc3)cc2C)cc1)C(=O)O [Example 24, (S)-3-(4-((5-(4-(1,2,3-thiadiazol-4-yl)phenyl)-3-methylthiophen-2-yl)methoxy)phenyl)-2-ethoxypropionic acid] |
| 7 |  | 31 | 19 | 5 | 30 | 109 |  | CCO[C@@H](Cc1ccc(OCc2sc(-c3ccc(-c4cc(COC)no4)cc3)cc2C)cc1)C(=O)O [Example 40, (S)-2-ethoxy-3-(4-((5-(4-(3-(methoxymethyl)isoxazol-5-yl)phenyl)-3-methylthiophen-2-yl)methoxy)phenyl)propionic acid] |
| 31 | 476 | 75 | 18 | 31 | 81 | 176 | 3440 | CCO[C@@H](Cc1ccc(OCc2sc(-c3ccc(-c4nc(C)c(C)o4)cc3)cc2C)cc1)C(=O)O [Example 34, (S)-3-(4-((5-(4-(4,5-dimethyloxazol-2-yl)phenyl)-3-methylthiophen-2-yl)methoxy)phenyl)-2-ethoxypropionic acid] |
